Experimental data published in patent US20070142395A1, “Treatment of sexual dysfunction with 1-[3-[4-(3-chlorophenyl)-1-piperazinyl]propyl]-5-methoxy-3,4-dihydro-2(1H)-quinolone or salt thereof” (Vela Pharmaceuticals, Inc., priority 2005, published 2007).
Values joined by “and” are separate entries in the source; they are usually repeats but may differ in a detail not shown here. Equal entries are not always repeated. Marks after values point to notes of the source that are not given here.

Tested on: patients with MDD
Assay: Changes in Sexual Function Questionnaire (CSFQ) scores, double-blind placebo-controlled clinical study
Format: in vivo, Humans
Parameters: key to CSFQ Desire/Interest score / CSFQ Arousal/Excitement score / CSFQ Orgasm/Completion score / CSFQ Total Score / CSFQ Pleasure score / CSFQ Desire/Frequency score: CSFQ items on 5-point scale; higher = more favorable sexual function
Protocol: A double-blind, randomized, placebo-controlled, parallel-group study was performed to evaluate the efficacy, safety and tolerability of OPC-14523 in patients with MDD. The patients selected for participation in the trial had to meet DSM-IV-TR criteria for MDD (296.2x or 296.3x; diagnosis via MINI) and had had symptoms of depression for at least 2 months before the start of the double-blind treatment. Among other drugs prohibited during the study, patients were prohibited from taking drugs used to enhance sexual function, including, but not limited to, sildenafil, tadalafil and vardenafil, or taking psychopharmacologic drugs.
There were 131 patients assigned to receive OPC-14523 at the start of the study. One hundred twenty seven (127) of these patients took at least one dose of OPC-14523. There were 137 patients assigned to receive placebo at the start of the study. One hundred thirty three (133) of these patients took at least one dose of placebo.
Each patient was expected to participate for up to 10 weeks. The 10 weeks included: i) a 4- to 10-day screening period, during which potential participants were administered placebo in a single-blind manner; ii) an 8-week double-blind treatment period; and iii) a 4- to 10- day post-treatment visit period. Baseline evaluations, including assessment of sexual function, were conducted on Day −1. The next day, Day 1, the double-blind medication was begun. All treatment was on an outpatient basis.
The dosages studied were 5 mg BID OPC-14523 (10 mg total daily dose of immediate release tablet of Example 1) and placebo. The drugs were taken after meals in the morning and in the evening, about 12 hours apart.
Data on sexual function were collected using the Changes in Sexual Function Questionnaire (CSFQ). The CSFQ is a 14-item self-report measure of sexual functioning vis-â-vis experiences of pleasure, desire, arousal, and orgasm, with a 5-point response option for each item. The 14-item validated CSFQ was developed from a questionnaire comprising 35 and 36 items for female and male respondents, respectively (Clayton et al., Psychopharmacol Bull. 33(4):731-45 (1997) and Clayton et al., Psychopharmacol Bull. 33(4):747-53 (1997), each incorporated herein by reference in its entirety). The CSFQ has also been independently validated (Bobes et al., J Sex Marital Ther. 26(2): 119-31(2000)). The 14-item CSFQ includes items 8, 11, 14, 19-24 from the interview version of the CSFQ (“CSFQ-I”); Clayton et al., Psychopharmacol Bull. 33(4):731-45 (1997)). The CSFQ differs for men and women, reflecting some variation in wording of items. Males were given the male clinical version, CSFQ-M-C, and women were given the female clinical version, CSFQ-F-C. CSFQ-F-C includes items 25, 27, 28, 30 and 31 from the questions for women on the CSFG-I. CSFQ-M-C includes items 28-32 from the questions for men on the CSFQ-I, as well as item 25 from the questions for women.
The 14-item CSFQ has subscales for sexual pleasure (1 item), desire/frequency (2 items), desire/interest (3 items), arousal (3 items), and orgasm (3 items). In addition, a 14-item total score may be calculated. Higher scores are indicative of more favorable sexual functioning. Threshold scores for total and sub-scales have been defined. A score below the threshold score indicates dysfunction.
Results were scored and analyzed according to the CSFQ instruction manual. The p-values resulted from an analysis of covariance (ANCOVA) linear model where the dependent variable is the change from baseline and independent variables are site effect, treatment effect, and baseline. The p-value is from the Type III sums of squares t-test for the hypothesis that the treatment groups are the same versus the alternative they are different. Last observation carry-forward (LOCF) analysis was used as indicated. In the LOCF analysis, for patients who dropped out before completion of the study, the last observations were carried forward to the final time point. […]

[1] = all patients (men and women), Baseline, before treatment
[2] = all patients (men and women), Day 28, 5 mg BID, LOCF
[3] = all patients (men and women), Day 56, 5 mg BID, LOCF
[4] = men only, Baseline, before treatment
[5] = men only, Day 28, 5 mg BID, LOCF
[6] = men only, Day 56, 5 mg BID, LOCF
[7] = women only, Baseline, before treatment
[8] = women only, Day 28, 5 mg BID, LOCF
[9] = women only, Day 56, 5 mg BID, LOCF

COc1cccc2c1CCC(=O)N2CCCN1CCN(c2cccc(Cl)c2)CC1 [OPC-14523, 1-[3-[4-(3-chlorophenyl)-1-piperazinyl]propyl]-5-methoxy-3,4-dihydro-2(1H)-quinolone]
CSFQ Arousal/Excitement score [1]: 8.97
CSFQ Desire/Frequency score [1]: 5.13
CSFQ Desire/Interest score [1]: 7.30
CSFQ Orgasm/Completion score [1]: 9.50
CSFQ Pleasure score [1]: 2.06
CSFQ Total Score [1]: 41.9
CSFQ Arousal/Excitement score [2]: 9.24
CSFQ Desire/Frequency score [2]: 5.39
CSFQ Desire/Interest score [2]: 7.66
CSFQ Orgasm/Completion score [2]: 9.56
CSFQ Pleasure score [2]: 2.41**
CSFQ Total Score [2]: 43.4
CSFQ Arousal/Excitement score [3]: 9.55
CSFQ Desire/Frequency score [3]: 5.57*
CSFQ Desire/Interest score [3]: 7.94*
CSFQ Orgasm/Completion score [3]: 9.77
CSFQ Pleasure score [3]: 2.51 (p = 0.11)
CSFQ Total Score [3]: 44.4 (p = 0.05)
sexual function overall, CSFQ Total Scores (in words) (all patients, compared with placebo, Day 28 and/or Day 56): significantly improved sexual function overall
sexual desire (in words) (both men and women): increased sexual desire
sexual pleasure and sexual arousal and excitement (in words) (men): strong trend of improved sexual pleasure and sexual arousal and excitement
CSFQ Arousal/Excitement score [4]: 10.5 and 10.48
CSFQ Desire/Frequency score [4]: 5.8 and 5.77
CSFQ Desire/Interest score [4]: 8.2 and 8.21
CSFQ Orgasm/Completion score [4]: 11.3 and 11.33
CSFQ Pleasure score [4]: 2.2 and 2.15
CSFQ Total Score [4]: 47.6
CSFQ Arousal/Excitement score [5]: 11.13 (p = 0.07)
CSFQ Desire/Frequency score [5]: 6.26*
CSFQ Desire/Interest score [5]: 8.94*
CSFQ Orgasm/Completion score [5]: 11.32
CSFQ Pleasure score [5]: 2.68***
CSFQ Total Score [5]: 50.1*
CSFQ Arousal/Excitement score [6]: 11.17 (p = 0.13)
CSFQ Desire/Frequency score [6]: 6.38*
CSFQ Desire/Interest score [6]: 8.91 (p = 0.07)
CSFQ Orgasm/Completion score [6]: 11.34
CSFQ Pleasure score [6]: 2.60 (p = 0.10)
CSFQ Total Score [6]: 50.2 (p = 0.12)
sexual function overall (in words) (men, compared with placebo, Day 28 and/or Day 56): significantly improved sexual function overall
sexual interest (in words) (men, p=0.07): improved sexual interest
total CSFQ and every subscale vs placebo (in words) (summary): advantage over placebo
CSFQ Arousal/Excitement score [7]: 7.9 and 7.91
CSFQ Desire/Frequency score [7]: 4.7 and 4.68
CSFQ Desire/Interest score [7]: 6.7 and 6.66
CSFQ Orgasm/Completion score [7]: 8.2 and 8.21
CSFQ Pleasure score [7]: 2.0 and 1.99
CSFQ Total Score [7]: 37.8
CSFQ Arousal/Excitement score [8]: 7.91
CSFQ Desire/Frequency score [8]: 4.78
CSFQ Desire/Interest score [8]: 6.76
CSFQ Orgasm/Completion score [8]: 8.33
CSFQ Pleasure score [8]: 2.22
CSFQ Total Score [8]: 38.7
CSFQ Arousal/Excitement score [9]: 8.43
CSFQ Desire/Frequency score [9]: 5.01
CSFQ Desire/Interest score [9]: 7.26 (p = 0.08)
CSFQ Orgasm/Completion score [9]: 8.69
CSFQ Pleasure score [9]: 2.46
CSFQ Total Score [9]: 40.4
sexual desire/interest (in words) (women, compared with placebo, Day 28 and/or Day 56): strong trend
sexual interest (in words) (women, p=0.08): improved sexual interest
